The text below walks through data of PMC8149334 (Cancer Chemotherapy and Pharmacology, 2021).

Some results are limits rather than exact numbers.

Series [1] relates to P-glycoprotein (P-gp). Conditions: cited from earlier work.
For series [2] the following is noted: in vivo. How it is done: Additional details of the bioanalytical methods are available in the Supplementary Appendix. Serial blood samples were collected in Parts 1 and 2 on day 1 of cycles 1, 2, and 3, and every 3 cycles thereafter (Supplementary Table 1). […] Concentration–time profiles were plotted for each analyte, and individual and mean plasma concentration–time data and pharmacokinetic parameters were summarized using descriptive statistics.
Pharmacokinetic analyses were performed using the validated Phoenix™ WinNonlin® software (v6.2.1; […]). Noncompartmental analysis (model, Plasma; dose, extravascular) was applied for the pharmacokinetic analysis. The pharmacokinetics outputs were created using SAS v9.3 (SAS Institute Inc., Cary, NC, USA). Summary statistics, including N, mean, SD, % coefficient of variation, geometric mean, median, minimum, and maximum, were calculated for plasma concentration of each analyte at each time point and for the derived pharmacokinetic parameters.

For the molecule `CNC(=O)c1ccc(N2C(=S)N(c3cnc(C#N)c(C(F)(F)F)c3)C(=O)C23CCC3)cc1F` [Apalutamide, apalutamide], the “Reduction in AUC0–last of fexofenadine” value in series [1] (patients with CRPC) was 30%.
Consider `O=C(O)c1cccc2cn(-c3ccc(C4CCCNC4)cc3)nc12` (stereo not drawn) [M1], for which the Metabolite-to-parent ratios entry in series [2] is “below 1”.
Consider `CO[C@H]1/C=C/O[C@@]2(C)Oc3c(C)c(O)c4c(O)c(c(/C=N/N5CCN(C)CC5)c(O)c4c3C2=O)NC(=O)/C(C)=C\C=C\[C@H](C)[C@H](O)[C@@H](C)[C@@H](O)[C@@H](C)[C@H](OC(C)=O)[C@@H]1C` [Rifampin], for which the “Decrease in exposure of various P-gp substrates” value in series [1] (human, not told) is reported as at most 67%.
